Results on 10 compounds are retold here after patent US5068248A, “N-alkenyl-3-hydroxybenzo[b]thiophene-2-carboxamide derivatives as dual cyclooxygenase and lipoxygenase inhibitors” (Merck & Co., Inc., priority 1989, dated 1991).

Like-named read-outs stand apart in the source and are kept apart here.

The term ED50 denotes the midpoint of the dose-response relation. In general, % Inhibition refers to the drop in the measured response relative to a control, in per cent.

The subject of one data set is PAF-induced hyperalgesia. Briefly: Platelet Activating Factor (PAF) Induced Hyperalgesia in the Rat. The note with it: for responders at 30 mg/kg: Rattus norvegicus, read-out: % Rats Exhibiting Analgesia; for Effect in PAF-induced hyperalgesia assay: p.o.; for Vocalization Threshold: mean in inflamed paw 3 hr after PAF; for % Analgesia: percentage of animals with V.T. greater than 200% of vehicle-treated controls. It is filed as in vivo, female Sprague-Dawley rats. The procedure: 1. Platelet Activating Factor. Induced Hyperalgesia in the Rat.
Groups of 10 female Sprague-Dawley rats, 35-50 g (Taconic Farms), were fasted overnight prior to testing. Hyperalgesia was induced in the rat by the subplantar injection of 1 ug PAF in physiological saline. Pain threshold was measured by applying pressure to the plantar surface of the hindpaw by means of a compressed air driven piston with a 2 mm tip. Vocalization thresholds were obtained 3 hr after injection of the PAF. Compounds, prepared at various doses in 1% methylcellulose suspension, were administered perorally 30 min before PAF. For each drug treatment group, animals with response pressures in the inflamed paw of 200% of control was considered to be analgesic. The mean vocalization threshold for each group was also calculated.

A further data set deals with PBQ-induced writhing. As to the kind of experiment: Phenylbenzoquinone (PBQ)-induced writhing in the Mouse. The format is in vivo, female mice (CD-1). The following applies: for ED50: Mus musculus, po; for % Inhibition: writhing. Here is the method: 2. PHENYLBENZOQUINONE (PBQ)-induced writhing in the Mouse […] Groups of 10 female mice (CD-1, Charles River Breeding Laboratories), weighing 20-25 g were fasted overnight prior to experiments. […] The number of writhes for each animal was recorded and the group means and standard errors were calculated. The means obtained from the drug treated groups were compared to the vehicle control means values and percent inhibition of writhing was calculated. ED50 values were calculated by regression analysis.
For orientation: Writhing tests count abdominal constrictions after an irritant is injected.

For data set [1], the system named is adjuvant-induced arthritis (Mycobacterium butyricum). Briefly: Developing Adjuvant-Induced Arthritis Assay in the Lewis Rat. The following applies: for Adrenal Weight / Change Body Weight 0-21 days / Foot Swelling-Day 14 / Foot Swelling-Day 21 / Thymus Weight: mean ± SEM; for Bone/Cartilage Destruction Score: score 0-3, 0 = 0 destruction, 3 = Maximum destruction; for Protection from bone/cartilage (hard tissue) destruction, X-ray: day 21, hindpaw joints, Compound A 3.0 and 10 mg/kg/day, Indomethacin 1 mg/kg/day. Also noted: Foot Swelling-Day 14: unit not given here. The format is in vivo, Female Lewis rats. The procedure:
3. Adjuvant Arthritis Assay
During the development of adjuvant arthritis, the rats lose body weight, the thymus gland involutes and the adrenal gland weight increases.
Female Lewis rats (purchased from Charles River, Wilmington, MA) were sorted into groups of ten in the weight range 160-199 g. The rats were sensitized to Mycobacterium butyricum (Difco) by the subplantar injection of 0.1 ml light mineral oil (Lubinol, Purepac Pharmaceutical Co., Elizabeth, NJ) containing 0.5 mg of the Mycobacterium into the left hindpaw. The Mycobacterium suspension was prepared by grinding in a glass mortar followed by the addition of the appropriate volume of light mineral oil. The suspension was transferred to a glass vial and stirred for 15 minutes on a magnetic stirrer to obtain a uniform suspension. After sensitization the rats were returned to metronic wire-bottomed cages and allowed food and water ad libitum with the food placed on the bottom of the cages for easy access. […] Rats received compound daily perorally as a suspension in 0.25% agar starting on the day of sensitization. Disease was quantitated by measuring the volume of the noninjected hindpaw by mercury displacement on days 0, 14 and 21. On day 21 (at the termination of the experiment) x-rays of the noninjected hindpaw were taken using a Phillips dental x-ray machine. Total body weight was determined on days 0 and 21 and at the termination of the experiment the thymus was removed and weighed. The statistical significance of the data was determined using Students t test.

Data set [2] has as its system indomethacin-induced gastric lesions. It is filed as in vivo, Male Sprague-Dawley rats. The note with it: for No. Gastric Lesions: Mean + S.E.M. The procedure: Male Sprague-Dawley rats, 130-150 g each, were sorted into groups for assay. The rats were fasted for 24 hours.
Several hours after the administration of compound A, the animals are sacrificed, the stomachs removed, excises along the inner curvature, washed carefully with cool tap water and placed in 0.9% saline. When all groups have been processed, the mucosal region of the stomachs are examined under a magnifying lens and scored according to the total number of lesions present. Group scores represent the mean score of animals in that group. The effect of Compound A on indomethacin-induced gastric lesions is shown below in Table 6: […]

Data set [3] relates to gastric acid secretion / gastric cytoprotection. The following applies: S. Szabo et al., Experimentia, 38, 254, 1982; cited from earlier work.
Setting [4] is: Platelet, po, 3 h, Table 2, 30 mg/kg p.o.

For `CC1=C(CC(=O)O)c2cc(F)ccc2/C1=C\c1ccc([S+](C)[O-])cc1` (stereo not shown) [Sulindac, reference compound], the responders at 30 mg/kg in the data set with PAF-induced hyperalgesia (setting [4]) was determined as 10%.
Compound `CC(C)Cc1ccc(C(C)C(=O)O)cc1` (stereo not shown) [Ibuprofen, reference compound] came in with an ED50 with PBQ-induced writhing of 9 mg/kg. Also, the responders at 30 mg/kg with PAF-induced hyperalgesia (setting [4]) was found to be 10%. Moreover, in the data set with PAF-induced hyperalgesia (rat), the “Effect in PAF-induced hyperalgesia assay” value is reported as “completely ineffective”.
`CC(C(=O)O)c1ccc2oc(-c3ccc(Cl)cc3)nc2c1` (stereo not shown) [Benoxaprofen, reference compound]: the responders at 30 mg/kg in the data set with PAF-induced hyperalgesia (setting [4]) is 10%. Also, the “Effect in PAF-induced hyperalgesia assay” value with PAF-induced hyperalgesia (rat) is recorded as “completely ineffective”.
As for `COc1ccc2cc([C@H](C)C(=O)O)ccc2c1` [Naproxen, reference compound], the “% Rats Exhibiting Analgesia” value in the data set with PAF-induced hyperalgesia (Table 2, 30 mg/kg p.o.) was 10%.
As to `O=C(O)c1cc(-c2ccc(F)cc2F)ccc1O` [Diflunisal, reference compound], in the data set with PAF-induced hyperalgesia (setting [4]), the responders at 30 mg/kg is 10%.
On to `O=C(NC=C(c1ccccc1)c1cccs1)c1sc2ccc(C(F)(F)F)cc2c1O` [Compound A, 3-hydroxy-5-trifluoromethyl-N-[2-phenyl-2-(2-thienyl)]-benzo[b]thiophene-2-carboxamide], for which the ED50 in the data set on PBQ-induced writhing worked out at 1 mg/kg; in data set [1] (po, 336 h, rat, p.o., swelling of noninjected hindpaw, day 14) it was 3 mg/kg; with PAF-induced hyperalgesia (Platelet, po, 3 h, rat, dose required to raise VT to greater than 200% of vehicle-treated control in 50% of animals, confidence limits 0.11-0.3), 0.19 mg/kg. The “Analgesic activity compared with standard drugs” value in the data set with PBQ-induced writhing (mouse, PBQ writhing, p.o.) is “equivalent to piroxicam and greater than ibuprofen”. Further, the “% Inhibition” value in the data set with PBQ-induced writhing (mouse, 0.1 mg/kg p.o. 1 hr before PBQ) was found to be 9 ± 3%; in the data set with PBQ-induced writhing (mouse, 0.3 mg/kg p.o. 1 hr before PBQ), 10 ± 5%; with PBQ-induced writhing (mouse, 1.0 mg/kg p.o. 1 hr before PBQ) it was 39 ± 13%; in the data set on PBQ-induced writhing (mouse, 3.0 mg/kg p.o. 1 hr before PBQ) it was 78 ± 7%. Also, the “% Inhibition Foot Swelling-Day 14” value in data set [1] (3.0 mg/kg/day P.O.) is on record as 56%; in data set [1] (10.0 mg/kg/day P.O.), 73%. In addition, the “% Inhibition Foot Swelling-Day 21” value turned out to be 43% in data set [1] (3.0 mg/kg/day P.O.) and 66% in data set [1] (10.0 mg/kg/day P.O.). Besides, the entries for the “Adrenal Weight” value in data set [1] (3.0 mg/kg/day P.O.) and in data set [1] (10.0 mg/kg/day P.O.) were 74.6 ± 3.3 mg and 91.8 ± 2.7 mg, respectively. Also, the “Change Body Weight 0-21 days” value is on record as -14.7 ± 3.2 gm in data set [1] (3.0 mg/kg/day P.O.) and -12.2 ± 2.9 gm in data set [1] (10.0 mg/kg/day P.O.). Also, the results for the “Foot Swelling-Day 14” value in data set [1] (3.0 mg/kg/day P.O.) and in data set [1] (10.0 mg/kg/day P.O.) were 449 ± 83 and 279 ± 39, respectively. Further, the entries for the “Foot Swelling-Day 21” value in data set [1] (3.0 mg/kg/day P.O.) and in data set [1] (10.0 mg/kg/day P.O.) were 921 ± 125 and 554 ± 67, respectively. Further, the “Thymus Weight” value came out at 161.0 ± 17.7 mg in data set [1] (3.0 mg/kg/day P.O.) and 241.5 ± 17.1 mg in data set [1] (10.0 mg/kg/day P.O.). Also, the “Bone/Cartilage Destruction Score” value in data set [1] (3.0 mg/kg/day P.O.) is recorded as 2.6; in data set [1] (10.0 mg/kg/day P.O.), 1.1. Also, the “Effect on thymus weight loss” value in data set [1] (10 mg/kg/day) was “inhibited the loss in weight of the thymus”. In data set [1] (both dose levels (3.0 and 10 mg/kg/day)), the “Effect on body weight loss” value is on record as “significantly inhibited body weight loss”. Besides, in data set [1] (chronic (21 days)), the “Inhibition of swelling of the noninjected hindpaw” value is reported as “marked inhibition of swelling of the noninjected hindpaw”. In addition, in data set [1], the “Protection from bone/cartilage (hard tissue) destruction, X-ray” value was “protection of the bone and cartilage destruction was only seen at the 10 mg/kg day dose level”. For the same compound, the “% Rats Exhibiting Analgesia” value in the data set on PAF-induced hyperalgesia (Table 2, 0.1 mg/kg p.o.) stood at 50%. Moreover, the “Vocalization Threshold” value with PAF-induced hyperalgesia (rat, 0.001 mg/kg p.o. 30 min before PAF) was found to be 10.2 mmHg; with PAF-induced hyperalgesia (rat, 0.01 mg/kg p.o. 30 min before PAF) it was 13.3 mmHg; in the data set on PAF-induced hyperalgesia (rat, 0.03 mg/kg p.o. 30 min before PAF), 13.0 mmHg; in the data set with PAF-induced hyperalgesia (rat, 0.1 mg/kg p.o. 30 min before PAF), 16.9 mmHg; in the data set on PAF-induced hyperalgesia (rat, 0.3 mg/kg p.o. 30 min before PAF), 17.6 mmHg; in the data set on PAF-induced hyperalgesia (rat, 1.0 mg/kg p.o. 30 min before PAF), 20.1 mmHg. Further, the “Vocalization Threshold” value with PAF-induced hyperalgesia (rat, 3.0 mg/kg p.o. 30 min before PAF) turned out to be 18.3 mmHg. In addition, the “% Analgesia” value amounted to 10% in the data set with PAF-induced hyperalgesia (rat, 0.001 mg/kg p.o.); 25% in the data set with PAF-induced hyperalgesia (rat, 0.01 mg/kg p.o.); 30% with PAF-induced hyperalgesia (rat, 0.03 mg/kg p.o.); 50% in the data set on PAF-induced hyperalgesia (rat, 0.1 mg/kg p.o.); 50% with PAF-induced hyperalgesia (rat, 0.3 mg/kg p.o.); 67% in the data set on PAF-induced hyperalgesia (rat, 1.0 mg/kg p.o.). Besides, in the data set on PAF-induced hyperalgesia (rat, 3.0 mg/kg p.o.), the “% Analgesia” value turned out to be 70%. Moreover, the “% Inhibition of Lesions” value in data set [2] (0.1 mg/kg P.O.) is recorded as 47%; in data set [2] (0.3 mg/kg P.O.), 60%; in data set [2] (1.0 mg/kg P.O.), 52%; in data set [2] (10.0 mg/kg P.O.), 81%. The “No. Gastric Lesions” value in data set [2] (0.1 mg/kg P.O., indomethacin-induced (10 mg/kg)) is 6.7 ± 4.1; in data set [2] (0.3 mg/kg P.O., indomethacin-induced (10 mg/kg)), 5.0 ± 3.1; in data set [2] (1.0 mg/kg P.O., indomethacin-induced (10 mg/kg)) it was 6.1 ± 5.5; in data set [2] (10.0 mg/kg P.O., indomethacin-induced (10 mg/kg)), 2.4 ± 1.1.
On to `CN1C(C(=O)Nc2ccccn2)=C(O)c2ccccc2S1(=O)=O` [Piroxicam, reference compound], for which the 50% effect level in the data set with PBQ-induced writhing (ED50) was put at a dose of 2 mg/kg. Also, the responders at 30 mg/kg with PAF-induced hyperalgesia (setting [4]) amounted to 0%. In the data set on PAF-induced hyperalgesia (rat), the “Effect in PAF-induced hyperalgesia assay” value was “completely ineffective”.
With `COc1ccc2c(c1)c(CC(=O)O)c(C)n2C(=O)c1ccc(Cl)cc1` [Indomethacin, reference compound], in data set [1] (1.0 mg/kg/day P.O.), the “% Inhibition Foot Swelling-Day 14” value turned out to be 87%, the “% Inhibition Foot Swelling-Day 21” value came to 88%, the “Adrenal Weight” value stood at 82.7 ± 2.8 mg and the “Change Body Weight 0-21 days” value was 0.7 ± 3.4 gm. In data set [1] (1.0 mg/kg/day P.O.), the “Foot Swelling-Day 21” value turned out to be 190 ± 38, the “Thymus Weight” value is listed as 359.6 ± 17.9 mg and the “Bone/Cartilage Destruction Score” value amounted to 0.1. The “Protection from bone/cartilage (hard tissue) destruction, X-ray” value in data set [1] is “virtually complete protection from hard tissue destruction”. In addition, in the data set with PAF-induced hyperalgesia (Table 2, 10 mg/kg p.o.), the “% Rats Exhibiting Analgesia” value is 10%. The “Effect in PAF-induced hyperalgesia assay” value in the data set with PAF-induced hyperalgesia (rat) is “completely ineffective”. In addition, the “No. Gastric Lesions” value in data set [2] (indomethacin alone 10.0 mg/kg P.O.) was found to be 12.6 ± 4.4.
As to `CCCCC[C@H](O)/C=C/[C@@H]1[C@@H](C/C=C\CCCC(=O)O)[C@H](O)C[C@H]1O` [protaglandin F2B], in data set [3], the “Gastric cytoprotection” value is on record as “does induce gastric cytoprotection” and the “Inhibition of gastric acid secretion” value is “does not inhibit gastric acid secretion”.
For the compound `CC(=O)Oc1ccccc1C(=O)O` [Aspirin, reference compound], in the data set with PAF-induced hyperalgesia (Table 2, 100 mg/kg p.o.), the “% Rats Exhibiting Analgesia” value is listed as 10%.
